Data taken from PMC4186413, “Identification of metabolic pathways and enzyme systems involved in the in vitro human hepatic metabolism of dronedarone, a potent new oral antiarrhythmic drug” (Pharmacology Research & Perspectives, 2014).

Assays:
MAO = target: T1, MAO (Homo sapiens, UniProt P21397); assay: Contribution of MAO to hepatocyte clearance (clorgyline inhibitory effect); format: in vitro ADME; conditions: for Effect of clorgyline on metabolism in hepatocytes: 5 μmol/L drug; for fm MAO, Mean ± SD: mean of hepatocyte preparations
T1 construct: host or cells: cryopreserved human hepatocytes in primary culture
T1 sequence (P21397 1-527): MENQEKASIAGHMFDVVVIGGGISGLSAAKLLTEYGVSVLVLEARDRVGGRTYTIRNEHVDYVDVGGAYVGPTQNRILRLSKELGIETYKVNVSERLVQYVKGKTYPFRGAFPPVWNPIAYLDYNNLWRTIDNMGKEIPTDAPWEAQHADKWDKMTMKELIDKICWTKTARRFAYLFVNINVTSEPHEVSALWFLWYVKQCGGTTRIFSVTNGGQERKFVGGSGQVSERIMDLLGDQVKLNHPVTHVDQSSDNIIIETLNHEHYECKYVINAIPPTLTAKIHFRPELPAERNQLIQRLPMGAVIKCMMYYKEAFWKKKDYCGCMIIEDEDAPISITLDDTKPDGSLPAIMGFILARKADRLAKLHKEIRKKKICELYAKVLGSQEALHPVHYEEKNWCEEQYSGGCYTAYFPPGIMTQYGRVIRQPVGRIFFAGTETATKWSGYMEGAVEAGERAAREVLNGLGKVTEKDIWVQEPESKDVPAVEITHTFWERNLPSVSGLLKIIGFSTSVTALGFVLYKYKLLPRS
Procedure: Experiments were performed in 48-well plastic plates coated with rat tail Collagen type I. Plates were seeded with 0.16 × 10^5 hepatocytes per well in a final volume of 0.2 mL and incubated at 37°C under a 95% humidified air and 5% CO2 atmosphere. After 3 h during which cells were allowed to attach, the medium was renewed with 0.1 mL serum-free medium. Then, the investigated drug or metabolic probe(s) were added directly to the incubation medium in the absence or the presence of inhibitors such as either ketoconazole as a specific and potent CYP3A inhibitor (3 μmol/L final concentration), clorgyline (0.25 μmol/L final concentration) as a potent MAO-A inhibitor or ABT as a potent but nonselective CYP isoforms inhibitor (1 mmol/L final concentration) (Fabre et al. [1988]; Bourrié et al. [1996]; Klieber et al. [2008]). Regardless of the final concentration investigated, the final solvent (DMSO) concentration never exceeded 0.2% (v/v).
To determine the metabolism of the different compounds (metabolic probes, dronedarone, N-debutyl-dronedarone, propanoic acid-dronedarone, phenol-dronedarone, and C-dealkyl-dronedarone), kinetic studies were performed over 0–24 h. For each time point, 0.1 mL of acetonitrile was added to the specific well for protein precipitation, and both extracellular medium and the cell fraction were scraped together. Cell extracts were transferred to a glass tube and stored at −20°C until analysis. Before analysis, cell homogenates were sonicated for a few seconds, homogenized and centrifuged at 6000 g for 10 min. Supernatant fluids were then analyzed for the different drugs and their specific metabolites.
The fraction metabolized (fm) by MAO, CYP3A or total CYPs was determined using the following equation: [drawing 3] where: kei is the elimination rate constant (expressed in h^−1) in the presence of the inhibitor.
The kinetics of drug disappearance were investigated using four different cryopreserved human hepatocyte preparations in primary cultures following incubation with either dronedarone or its metabolites at a concentration of 5 μmol/L. Incubations were performed either in the absence, that is control conditions, or in the presence of enzyme system inhibitors such as 3 μmol/L ketoconazole (specific and potent inhibitor of CYP3A4/5), 1 mmol/L ABT (a potent and […] inhibitor of total CYPs), or 0.25 μmol/L clorgyline (a potent MAO-A inhibitor) (Dorris [1982]). Kinetic studies were performed over 24 h.

[1] = tested on: UGT1A1, UGT1A3, UGT1A4, UGT1A6, UGT1A7, UGT1A8, UGT1A9, UGT1A10, UGT2B4, UGT2B7, UGT2B15, and UGT2B17; assay: Glucuronidation by the panel of recombinant human UGT isoforms; format: in vitro ADME; conditions: 1 mg/mL, 5 μmol/L, 30 min, UDPGA
Description: Recombinant human CYPs (Supersomes™; BD Gentes, Woburn, MA: CYP1A1, CYP1A2, CYP2A6, CYP2B6, CYP2C8, CYP2C9, CYP2C18, CYP2C19, CYP2D6, CYP2E1, CYP3A4 and CYP3A5), FMOs (Supersomes™: FMO1, FMO3, FMO5), MAOs (Supersomes™: MAO-A and MAO-B), and UGTs (Supersomes™: UGT1A1, UGT1A3, UGT1A4, UGT1A6, UGT1A7, UGT1A8, UGT1A9, UGT1A10, UGT2B4, UGT2B7, UGT2B15, and UGT2B17) expressed in baculovirus-infected insect cells and control microsomes from insect cells infected with wild-type baculovirus were all obtained from BD Gentest (Woburn, MA).
For glucuronidation pathways, the assay mixture was composed of human liver microsomes (2 mg·mL^−1) or microsomes of baculovirus-infected cells expressing human UGTs (1 mg·mL^−1), uridine 5′-diphosphoglucuronic acid (UDPGA) (3 mmol/L), 100 mmol/L Tris HCl (pH 7.4) containing 5 mmol/L MgCl2 and 5 μmol/L of the investigated compound dissolved in DMSO in a final volume of 500 μL. The final concentration of DMSO in the reaction mixture was less than 1% (v/v). Initial rate conditions with respect to time and protein concentration for both the disappearance of unchanged drug and the formation of respective metabolites were established in preliminary studies. The microsomal mixture was first incubated for 10 min at 4°C in the presence of alamethicin (0.125 mg·mL^−1), then the reaction was initiated by addition of UDPGA (30 mmol/L aqueous solution) to achieve a final concentration of 3 mmol/L for UGT-dependent reactions, incubated at 37°C and stopped after 0–30 min by addition of one volume of ice-cold acetonitrile. […]
Figure 7 Contribution of individual UGTs to the glucuronidation of propanoic acid-dronedarone and phenol-dronedarone. […] Unchanged drugs were quantified by LC/MS-MS relative to the synthetic references as described in Materials and Methods. Data are expressed as the percentage of glucuronidation.

[2] = HU-1358, 0.25 μmol/L clorgyline
[3] = IVT-IBG, 0.25 μmol/L clorgyline

For `CCCCc1oc2ccc(NS(C)(=O)=O)cc2c1C(=O)c1ccc(O)cc1` [Phenol-dronedarone], the “Effect of clorgyline on metabolism in hepatocytes” value (“Effect of clorgyline on metabolism” below) (MAO; 0.25 μmol/L clorgyline) was “did not contribute”.
In the case of `CCCCc1oc2ccc(NS(C)(=O)=O)cc2c1C(=O)c1ccc(OCCCN(CCCC)CCCC)cc1.Cl` [Dronedarone, N-(2-Butyl-3-(4-(3-(dibutylamino)propoxy)benzoyl)-5-benzofuranyl)methanesulfonamide, hydrochloride], the “Glucuronidation by recombinant human UGT isoforms” value (“Glucuronidation” below) [1] is reported as “No glucuronidation was observed”, the “Effect of clorgyline on metabolism” value (MAO; 0.25 μmol/L clorgyline) is reported as “minor inhibitory effect” and the “fm MAO” value (MAO; BD-91, 0.25 μmol/L clorgyline) is reported as 18%. For the same compound, the “fm MAO” value (MAO; [2]) was 23%, the “fm MAO” value (MAO; [3]) was 43% and the “fm MAO, Mean ± SD” value (MAO; 0.25 μmol/L clorgyline) was 29 ± 14%.
`CCCCN(CCCC)CCCOc1ccc(C(=O)O)cc1` [C-dealkyl-dronedarone] was tested, and the “Glucuronidation” value [1] was “No glucuronidation was observed” and the “Effect of clorgyline on metabolism” value (MAO; 0.25 μmol/L clorgyline) was “no effect”.
For `CCCCNCCCOc1ccc(C(=O)c2c(CCCC)oc3ccc(NS(C)(=O)=O)cc23)cc1` [N-debutyl-dronedarone], the “Glucuronidation” value [1] was “No glucuronidation was observed”, the “Effect of clorgyline on metabolism” value (MAO; 0.25 μmol/L clorgyline) was “potently inhibited” and the “fm MAO” value (MAO; BD-91, 0.25 μmol/L clorgyline) was 88%. The “fm MAO” value (MAO; BD-296, 0.25 μmol/L clorgyline) was 80%, the “fm MAO” value (MAO; [2]) was 86% and the “fm MAO” value (MAO; [3]) was 83%. For the same compound, the “fm MAO, Mean ± SD” value (MAO; 0.25 μmol/L clorgyline) was 84 ± 3%.
In the case of `CCCCc1oc2ccc(NS(C)(=O)=O)cc2c1C(=O)c1ccc(OCCC(=O)O)cc1` [Propanoic acid-dronedarone], the “Effect of clorgyline on metabolism” value (MAO; 0.25 μmol/L clorgyline) is reported as “no inhibitory effect”, the “fm MAO” value (MAO; BD-91, 0.25 μmol/L clorgyline) is reported as 12% and the “fm MAO” value (MAO; BD-296, 0.25 μmol/L clorgyline) is reported as 0%. The “fm MAO” value (MAO; [2]) was 0%, the “fm MAO” value (MAO; [3]) was 0% and the “fm MAO, Mean ± SD” value (MAO; 0.25 μmol/L clorgyline) was 3 ± 5%.
